Data reported in patent US9062095B2, “Mutant double cyclized receptor peptides inhibiting β1-adrenoceptor antibodies” (JULIUS-MAXIMILIANS-UNIVERSTITAT-WURZBURG, priority 2007, dated 2015).
Positions of bridges follow the written chain, without caps; N, C: chain ends.

Columns and labels:
[1] = test system: anti-beta1-ECII antibody-secreting cells (ASC); experiment: ELISPOT-assay with B-cells from bone marrow or spleen of prophylactically treated rats; type: in vivo, rat; conditions: prophylactically treated versus untreated immunized rats, n=3-4 (FIG. 13)
Experimental: Cys/Ser, horizontally hatched columns). For the assays, ELIspot plates were coated overnight with the specific antigen (GST/beta1-ECII-FP) in 0.05 mol/1 Tris buffer, pH 9.4.; then the plates were washed 3 times and blocked with BSA for 3 hours at 37° C. Subsequently, the plates were incubated overnight at 37° C. with B-cells from either spleen or bone marrow (cultured in RPMI 1640/X-VIVO-15 medium supplemented with 10% fetal calf serum (FCS)) with 1×10^6 to 1×10^3 cells per well. After 12 hours the B-cells were discarded and the plates with the B-cell secreted IgG bound were washed several times (PBS/0.5° A) Tween) before the addition of alkaline phos-phatase conjugated secondary anti-rat IgG (0.3 μg/ml) to detect bound rat IgG. Then the plates were incubated for another 3 hours at 37° C., washed several times with PBS/0.5% Tween, and developed using LMP/BICP 5:1 (1 ml per well; “LMP” means low melting agarose, and “BICP” means 5-bromo-4-chloro-3-indolyl phosphate p-toluidine salt, a blue-colored dye) allowing for a quantification of the blue spots obtained, with each spot representing an antigen-specific IgG secreting spleen or bone-marrow cell.
This finding was confirmed by ELIspot analysis of bone marrow and spleen cell preparations of selected cyclopeptide-treated versus untreated immunized rats (n=3).

[2] = test system: beta1-ECII receptor antibody-titers; experiment: in vivo therapy study cyc22AA versus cyc18AA Cys/Ser in rats immunized over 8 months: antibody-titers; parameters: species or system rat; conditions: injections every 4 weeks, start at month 8; mean ±SEM (FIG. 28A)
Description: FIGS. 28A and B depict the in vivo blocking (=neutralization) capacity of two cysteine-containing 18AA or 22AA cyclopeptide-mutants of the second extracellular loop (ECII) of the human beta1-adrenergic receptor upon therapeutic injection of the different constructs into rats regularly immunized since 8 months (first=basic immunization followed by 7 antigen-boosts every 4 weeks). The effects of four to five subsequent cyclopeptide-injections every 4 weeks are shown. FIG. 28A depicts the mean values±SEM of each of the treated groups of immunized beta1-ECII-antibody positive cardiomyopathic rats (animal number per group is given in the legend). […] The remaining receptor antibody-titers after each injection in % of the antibody-titers at start therapy (month 8) are depicted (columns). Error bars indicate ±SEM. Numbers in columns indicate the number of (subsequent) monthly injection.
FIG. 28B depicts the time course of antibody-titers after 4 subsequent cyclopeptide-injections, determined before and 20-22 hours after application of the indicated constructs. Values are given in percent of increase or decrease in the respective antibody-titers after each cyclopeptide-injection compared with the antibody-titer determined at start of therapy (month 8). […]

[3] = test system: anti-beta1-receptor antibody-titers; experiment: in vivo therapy study in long term immunized cardiomyopathic rats: antibody-titers by ELISA; parameters: species or system rat; conditions: for in vivo blocking capacity after the first i.v. injection: sera 18-20 hours after injection (FIGS. 14 and 15)
Experimental: FIG. 16A is a diagram resuming the in vivo blocking effect of both 25AA and 18AA cyclopeptide mutants with a Gln closure site, determined after a total of nine intravenous (i.v.) in-jections of 1.0 mg/kg body weight (Bw) of the indicated peptides into immunized antibody-positive rats. Sera were drawn before and 18-20 hours after i.v. injection of the various peptides every 4 weeks (abscissa: time in months of treatment) and assayed for reactivity by ELISA using the 3 Cys-containing linear 25AA Cys/Cys-peptide as an antigen.
FIG. 16B is a diagram resuming the in vivo blocking effect of various concentrations of 18AA cyclopeptide mutants with a Gln closure site, determined after a total of nine intra-venous (i.v.) injections of 0.25, 1.0, 2.0, and 4.0 mg/kg body weight (Bw) into immunized antibody-positive rats, irrespective of the cyclopeptide “responder-state” of individual animals. Sera were drawn before and 18-20 hours after i.v. injection of the various peptides every 4 weeks (abscissa: time in months), and assayed for reactivity by ELISA using the 3 Cys-containing linear 25AA Cys/Cys-peptide as an antigen.
Sera were drawn as described above and assayed for reactivity by ELISA using the 3 Cys-containing linear 25AA Cys/Cys-peptide as an antigen.
Moreover, the in vivo blocking effects of therapeutically used 25AA and 18AA Cys/Ser cyclo-peptide mutants, the 18AA Ser/Cys mutant (Gln-)cyclopeptide, and a mutated linear 18AA Cys/Ser peptide were assessed after a first intravenous (i.v.) dose (i.e., 1.0 mg/kg body weight (Bw)) of each construct injected into long term immunized anti-beta1-ECII antibody-positive rats, yet presenting a cardiomyopathic phenotype (after nine months of 1× monthly immunization with the beta1-ECII/GST antigen; FIGS. 14-16 and 17). Sera were drawn 18-20 hours after the first i.v. injection of the various constructions and assayed for reactivity by ELISA using the 3 Cys-containing linear 25AA Cys/Cys-peptide as an antigen.
The latter doses were almost equally efficient in terms of both, neutralization of circulating receptor antibodies (FIGS. 16b and c), and reversal of antibody-induced cardiomyopathic features (FIGS. 17b, 19b, 20, and 21b).
In order to generate anti-β1-receptor antibodies the animals were immunized with a fusion protein containing bacterial glutathione-S-transferase and the sequence of the second extra-cellular loop of the human β1-adrenergic receptor (GST/β1-ECII). Before treatment of the animals with mutated cyclopeptides according to the present invention, progressive dilated immune cardiomyopathy is observed after 6 to 8 months of regular immunization every four weeks (FIG. 17). All of the immunized animals developed high titers of stimulatory anti-β1-ECII antibodies. The specific anti-β1-ECII titer reached a maximum between 6 and 8 months of continuously boosting the animals every 4 weeks, whereas NaCl-injected control animals developed no specific receptor antibodies (FIG. 18).
Such immunized animals were used for the application of mutant cyclopeptides according to the present invention. The in-vivo blocking effect of both 25AA and 18AA Cys/Ser mutant cyclopeptides (with a Gln closure site) were determined after a first intravenous (i.v.) injection of 1.0 mg/kg body weight (Bw) (for 18AA Cys/Ser cyclopeptides also 0.25 mg/kg/Bw) into immunized antibody-positive rats. Sera were drawn 18-20 hours after i.v. injection of the different peptides and assayed for reactivity by ELISA using the 3 Cys-containing linear 25AA Cys/Cys-peptide as an antigen.

**Q.** With “Cyclo-Ala-Asp-Glu-Ala-Arg-Arg-Cys-Tyr-Asn-Asp-Pro-Lys-Cys-Ser-Asp-Phe-Val-Gln (cyclo(ADEARRCYNDPKCSDFVQ); disulfide 7-13; SMILES CC(C)[C@@H]1NC(=O)[C@H](Cc2ccccc2)NC(=O)[C@H](CC(=O)O)NC(=O)[C@H](CO)NC(=O)[C@@H]2CSSC[C@H](NC(=O)[C@H](CCCNC(=N)N)NC(=O)[C@H](CCCNC(=N)N)NC(=O)[C@H](C)NC(=O)[C@H](CCC(=O)O)NC(=O)[C@H](CC(=O)O)NC(=O)[C@H](C)NC(=O)[C@H](CCC(N)=O)NC1=O)C(=O)N[C@@H](Cc1ccc(O)cc1)C(=O)N[C@@H](CC(N)=O)C(=O)N[C@@H](CC(=O)O)C(=O)N1CCC[C@H]1C(=O)N[C@@H](CCCCN)C(=O)N2) [18AA Cys/Ser mutant (Gln-)cyclopeptide, disulphide bond Cys7-Cys13, ring closure Ala1-Gln18]” as the substance, how does the “number of specific anti-beta1-ECII antibody-secreting cells (ASC) in spleen and bone marrow” value [1] read?
**A.** The value was “significant decrease”.

**Q.** What about the “antibody-titer remaining after 4 injections in percent of the titer at start of therapy” value [2] of the same substance?
**A.** The value was 76.0±23.0%.

**Q.** What about the “number of responders (after 7 injections remaining antibody level equal or inferior to 80% of titer at start of therapy)” value ([3]; 0.25 mg/kg Bw (FIG. 16C)) of the same substance?
**A.** Its value is 3/4.

**Q.** What about the “achieved decrease in circulating receptor-antibodies compared with 1.0 or 2.0 mg/kg” value ([3]; 0.25 mg/kg Bw, repeated injections every 4 weeks) of the same substance?
**A.** Its value is “clearly less efficient”.

**Q.** And the “in vivo blocking capacity after the first i.v. injection” value (from here on “in vivo blocking capacity”) ([3]; 0.25 mg/kg body weight)?
**A.** Its value is “no relevant decrease in receptor-antibodies”.

**Q.** What about the “number of responders (after 7 injections remaining antibody level equal or inferior to 80% of titer at start of therapy)” value ([3]; 1.0 mg/kg Bw (FIG. 16C)) of the same substance?
**A.** The value was 16/20.

**Q.** What about the “initial transient increase in antibody-titers” value (“initial transient increase” below) ([3]; 1.0 mg/kg Bw (FIGS. 16a and b)) of the same substance?
**A.** Its value is “did not occur”.

**Q.** What about the “in vivo blocking capacity” value ([3]; 1 mg/kg Bw, listed as 18AA Cys/Ser cyclopeptide mutant) of the same substance?
**A.** Its value is “largely superior to that of the linear 18AA Cys/Ser peptide mutant”.

**Q.** What about the “in vivo blocking capacity” value ([3]; 1 mg/kg Bw, listed as 18AA Cys/Ser cyclopeptide mutants) of the same substance?
**A.** Its value is “higher in vivo blocking capacity”.

**Q.** What about the “absolute decrease in antibody-titers after 9 months of treatment, of the titer at start of therapy” value (“absolute decrease in antibody-titers” below) ([3]; 1.0 mg/kg i.v. every 4 weeks) of the same substance?
**A.** The value was −59±14%.

**Q.** What about the “initial transient increase” value ([3]; 2.0 mg/kg Bw) of the same substance?
**A.** The value was “did not occur”.

**Q.** And the “number of responders (after 7 injections remaining antibody level equal or inferior to 80% of titer at start of therapy)” value ([3]; 2.0 mg/kg Bw (FIG. 16C))?
**A.** Its value is 2/5.

**Q.** And the “absolute decrease in antibody-titers” value ([3]; 2.0 mg/kg i.v. every 4 weeks)?
**A.** Its value is −59±12%.

**Q.** And the “number of responders (after 7 injections remaining antibody level equal or inferior to 80% of titer at start of therapy)” value ([3]; 4.0 mg/kg Bw (FIG. 16C))?
**A.** Its value is 6/9.

**Q.** What about the “initial transient increase” value ([3]; 4.0 mg/kg Bw (high dose)) of the same substance?
**A.** The value was “transient increase in antibody-titers”.

**Q.** What about the “antibody scavenging capacity compared with 1.0 or 2.0 mg/kg” value ([3]; 4.0 mg/kg body weight, repeated injections every 4 weeks) of the same substance?
**A.** Its value is “did not result in higher efficiency”.

**Q.** What about the “absolute decrease in antibody-titers” value ([3]; 4.0 mg/kg i.v. every 4 weeks) of the same substance?
**A.** Its value is −39±14%.
